Measurements: patent US12295997B2, “Prostate neoantigens and their uses” (Janssen Biotech, Inc., priority 2020, dated 2025)

Tests used:
[1] = tested on: CD8+ and CD4+ T cells (autologous CD3+ Pan-T cells isolated from human normal PBMCs); assay: Exogenous autologous normal donor restimulation assay (15-mer overlapping peptide pools on CD1c+ dendritic cells, TNFα/IFNγ flow cytometry); assay type: cell-based; details: Table 25, 15-mer overlapping peptide pool; for Maximum Fold Change Over Background CD4+ cells: TNFα+IFNγ+ CD4+ T cells; for Maximum Fold Change Over Background CD4+ cells / Maximum Fold Change Over Background CD8+ cells: highest fold change over negative control across normal donors; for Maximum Fold Change Over Background CD8+ cells: TNFα+IFNγ+ CD8+ T cells; for Maximum Frequency of TNFα/IFNγ Double Positive CD4+ T cells / Maximum Frequency of TNFα/IFNγ Double Positive CD8+ T cells: highest frequency across normal donors
Outline: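 Autologous CD3+ Pan-T cells from normal donors were co-cultured 12 days with irradiated CD1c+ DCs pulsed with 15-mer overlapping neoantigen peptide pools at 2.5–10 μg/mL, with IL-15 and IL-2 support. Cells were restimulated on day 11, then TNFα/IFNγ double-positive CD8+ and CD4+ frequencies read by flow. Positive means ≥3-fold over DMSO and ≥0.01%.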

[2] = tested on: CD8+ and CD4+ T cells (autologous CD3+ Pan-T cells isolated from human normal PBMCs); assay: Endogenous autologous normal donor restimulation assay (Ad5-transduced CD1c+ dendritic cells, TNFα/IFNγ flow cytometry); assay type: cell-based; details: Table 27, endogenous expression, peptide pool restimulation, highest across sixteen normal donors
Experimental: CD1c+ Dendritic Cells (DC) isolated from human normal PBMCs were thawed using media (IMDM (Gibco) supplemented with glutamine, HEPES, 5% human serum (Sigma), and 1×Pen-Strep). DC cells were resuspended in media supplemented with IL-4 (Peprotech, 80 ng/mL) and GM-CSF (Gibco, 80 ng/mL), plated in 6 well microplates, and rested overnight at 37° C. (5% CO2). The following day, DC cells were counted and plated in a 96 well round bottom microplate at a concentration of 30,000 viable cells per well. Ad5 vectors (Vector Biolabs) were dilute in media to an MOI (Multiplicity Of Infection) of 5000 based on Plaque Forming Units. Ad5 vectors for the CEF pool and a “null” were used as controls. DCs were transduced with Ad5 vectors overnight at 37° C. (5% CO2). The following day, the Ad5 vectors were washed off the plate by three sequential centrifugation/aspiration steps using sterile Phosphate Buffered Saline. After the final wash, transduced DCs were resuspended in 100 μL media. Autologous CD3+ Pan-T cells isolated from human normal PBMCs were thawed using media. Pan-T cells were added to the irradiated DCs at 300,000 viable cells per well (100 μL/well). Human IL-15 (Peprotech) was added to all wells at final concentration of 10 ng/mL.
Plates were incubated at 37° C. (5% CO2) for a total of 12 days. Media was refreshed every 2-3 days with IL-15 (10 ng/mL final concentration) and IL-2 (R&D systems, 10 IU/mL final concentration). On day 11 lyophilized peptides (15-mer overlapping peptides) were solubilized in 100% DMSO and pooled by neoantigen to between 5 mg/mL and 20 mg/mL. Neoantigen peptides pools were added to cells for a final concentration of 2.5 μg/mL to 10 μg/mL. CEF Peptide Pool “Plus” (Cellular Technologies, Ltd.) was utilized as a positive control and DMSO at the same final concentration as the experimental peptides was utilized as a negative control. Protein Inhibitor Cocktail (eBioscience) was added to every well and plate was incubated overnight at 37° C. (5% CO2).
On day 12, cells were stained for intracellular flow cytometry analysis. The cells were washed with PBS and stained with Live/Dead Fixable Aqua Dead Cell stain (Thermo-Fisher). Following the live/dead stain, cells were blocked using Biotin-Free Fc Receptor Blocker (Accurate Chemical & Scientific Corp). Extracellular cellular flow panel ([…] per well in 50 μL) consisted of CD3 PerCP-Cy5.5 (Biolegend), CD4 BV421 (Biolegend), and CD8 APC-Cy7 (Biolegend). After extracellular staining, cells were fixed using Foxp3/fTranscription Factor Staining Buffer Set (eBioscience) and stained for intracellular proteins (1:50 dilution) using TNFα FITC (R&D Systems) and IFNγ BV785 (Biolegend). Cells were washed and resuspended in stain buffer and analyzed using a BD Celesta flow cytometer.
Flow cytometry cell staining analysis was completed using FlowJo v10. Cells were gated on live, singlet, CD3+ cells. The CD8+ and CD4+ T cells were analyzed for TNFα/IFNγ expression and the frequency of double positive TNFα/IFNγ CD8+ and the frequency of double positive TNFα/IFNγ CD4+ T cells were recorded. Responses were assessed to be positive when the frequency of double positive TNFα/IFNγ CD8+ or TNFα/IFNγ CD4+ T cells due to stimulation with an experimental peptide pool was increased greater than or equal to 3-fold over the DMSO only negative control for that donor and at least 0.01%.
For three of the neoantigens, an Ad5 vector was designed to transduce normal Dendritic cells with the neoantigens. This assay assessed the ability of the endogenously expressed and presented neoantigens to activate autologous T cells following overlapping 15-mer peptide pools restimulation using the endogenous autologous normal donor restimulation assay described in Example 1 utilizing TNFα and IFNγ production by CD8^+ and CD4^+ T cells as a readout. […] Sixteen donors were used to assess endogenous immunogenicity.

Sequence | Maximum Fold Change Over Background CD4+ cells [1] | Maximum Fold Change Over Background CD8+ cells [1] | Maximum Frequency of TNFα/IFNγ Double Positive CD4+ T cells [1] | Maximum Frequency of TNFα/IFNγ Double Positive CD8+ T cells [1] | Maximum Fold Change Over Background CD4+ cells [2] | Maximum Fold Change Over Background CD8+ cells [2] | Maximum Frequency of TNFα/IFNγ Double Positive CD4+ T cells [2] | Maximum Frequency of TNFα/IFNγ Double Positive CD8+ T cells [2]
WKFEMSYTVGGPPPHVHARPRHWKTDR (listed as Homo sapiens) [AS18, NWD1 alternative splicing] | 7.51 | 9.17 | 0.053 | 0.110 | 1.90 | 4.09 | 0.046 | 0.36
DGHSYTSKVNCLLLQDGFHGCVSITGAAGRRNLSIFLFLMLCKLEFHAC (listed as Homo sapiens) [AS55, SPOCK1 alternative splicing] | 19.38 | 1354.17 | 0.310 | 32.500 | 3.50 | 213.88 | 0.063 | 2.05
